Experimental data taken from patent publication US10882859B2, “Kinase inhibitors” (Topivert Pharma Limited, priority 2015, dated 2021).
Read-outs that look alike come from different tables or passages of the source.

Columns and labels:
[1] = tested on: CD3/IL2 stimulated PBMC cells; assay: IFNγ release from CD3/IL2 stimulated PBMC cells; format: cell-based; settings: Homo sapiens, CD3/IL2 stimulation, 48 h, ELISA
Procedure: PBMCs from healthy subjects are separated from whole blood using a density gradient (Lymphoprep, Axis-Shield Healthcare). Cells are added to a 96 well plate, and compound at the desired concentration added 2 hours prior to stimulation with a mixture of monoclonal antibody to CD3 (1 μg/ml, eBioscience) and human recombinant IL2 (10 ng/ml, Peprotech). After 48 hours incubation under normal tissue culture conditions, supernatants are collected and IFNγ release determined by Sandwich ELISA (Duo-set, R&D System). The IC50 is determined from the dose response curve.

Jurkat cells = assay: Cell cytotoxicity assay (propidium iodide, flow cytometry); format: cell-based, human; settings: 24 h
Procedure: 1×10^5 Jurkat cells (immortalised human T lymphocytes) are added to the appropriate number of wells of a 96 well plate in 100 μL of media (RPMI supplemented with 10% foetal bovine serum). 1 μL of DMSO control (final concentration 1.0% v/v) or test compound (final concentration 20, 5 or 1 μg/mL) is added to the wells and incubated at 37° C., 5% CO2. After 24 hours, the plate is centrifuged at 1200 rpm for 3 minutes and the supernatant discarded. Cells are then resuspended in 150 μL (final concentration 7.5 μg/mL) of propidium iodide (PI) in PBS and incubated at 37° C., 5% CO2 for 15 minutes. After 15 minutes, cells are analysed by flow cytometry (BD accuri) using the FL3 window. The % viability is calculated as the % of cells that are PI negative in the test wells normalised to the DMSO control.

[2] = Systemic pharmacokinetics and total colon tissue distribution after single oral administration; format: in vivo, male C57BL/6 mice; settings: mice, oral 10 mg/kg; for concentration at 0.5 h / concentration at 1 h / concentration at 2 h / concentration at 4 h / concentration at 6 h / concentration at 8 h / concentration at 12 h / concentration at 24 h: male, C57BL/6, mouse
Procedure: Studies were conducted by Sai Life Sciences (Hinjewadi, Pune, India) to investigate the systemic pharmacokinetics and total colon tissue distribution of compounds of the invention following a single oral administration in male C57BL/6 mice.
A group of twenty four male mice were administered with a solution of test compound formulated at a dose of 10 mg/10 mL/kg in aqueous hydroxypropyl-β-cyclodextrin (20% w/v in water). Blood samples ([…]) were collected from retro-orbital plexus of each mouse under light isoflurane anaesthesia such that the samples were obtained at 0.5, 1, 2, 4, 6, 8, 12 and 24 hr. The blood samples were collected from a set of three mice at each time point in a labeled micro centrifuge tube containing K2EDTA as anticoagulant. Plasma samples were separated by centrifugation at 4000 rpm for 10 min and stored below −70° C. until bioanalysis. After collection of blood sample, animals were humanely euthanized by carbon dioxide asphyxiation to collect total colon tissues. The colons were flushed with cold PBS (pH7.4) to remove contents. The total colon tissues were homogenized with cold PBS (pH7.4) of twice the weight of colon tissue and stored below −70° C. Total volume was three times the total colon tissue weights. All samples were processed for analysis by protein precipitation using acetonitrile and analyzed with a fit-for-purpose LC-MS/MS method. Pharmacokinetic parameters were calculated using the non-compartmental analysis tool of Phoenix WinNonlin® (Version 6.3).

[3] = total colon tissue, total colon, read-out: Mean total colon level
[4] = plasma, read-out: Mean plasma concentration

SMILES | IC50 [1] [nM] | % viability at 1 μg/mL (Jurkat cells) [%] | further results
CCc1cc(O)c(F)cc1-c1ccc2c(-c3nc4c([nH]3)CCN(C(=O)N3CCN(CC)C(=O)C3=O)C4)n[nH]c2c1 [Example 2(c), 1-ethyl-4-(2-(6-(2-ethyl-5-fluoro-4-hydroxyphenyl)-1H-indazol-3-yl)-4,5,6,7-tetrahydro-1H-imidazo[4,5-c]pyridine-5-carbonyl)piperazine-2,3-dione] | 129 | 99 | 
CCc1cc(O)c(F)cc1-c1ccc2c(-c3nc4c([nH]3)CCN(S(=O)(=O)N(CCC#N)CCOC)C4)n[nH]c2c1 [Example 6(a), N-(2-cyanoethyl)-2-(6-(2-ethyl-5-fluoro-4-hydroxyphenyl)-1H-indazol-3-yl)-N-(2-methoxyethyl)-6,7-dihydro-1H-imidazo[4,5-c]pyridine-5(4H)-sulfonamide] | 9.5 | 79 | 
CCc1cc(O)c(F)cc1-c1ccc2c(-c3nc4c([nH]3)CCN(S(=O)(=O)N3CCC(OC)CC3)C4)n[nH]c2c1 [Example 6(i), 5-Ethyl-2-fluoro-4-(3-(5-((4-methoxypiperidin-1-yl)sulfonyl)-4,5,6,7-tetrahydro-1H-imidazo[4,5-c]pyridin-2-yl)-1H-indazol-6-yl)phenol] | 14 | 86 | 
CCc1cc(O)c(F)cc1-c1ccc2c(-c3nc4c([nH]3)CCN(C(=O)NCC3CCOCC3)C4)n[nH]c2c1 [Example 3, 2-(6-(2-Ethyl-5-fluoro-4-hydroxyphenvl)-1H-indazol-3-yl)-N-((tetrahydro-2H-byran-4-yl)methyl)-6,7-dihydro-1H-imidazo[4,5-c]pyridine-5(4)-carboxamide] | 19.5 | 91 | 
CCc1cc(O)c(F)cc1-c1ccc2c(-c3nc4c([nH]3)CCN(S(=O)(=O)N3CCN(S(C)(=O)=O)CC3)C4)n[nH]c2c1 [Example 5] | 17.8 | 87 | 
CCc1cc(O)c(F)cc1-c1ccc2c(-c3nc4c([nH]3)CCN(C(=O)N(C)c3ccccc3)C4)n[nH]c2c1 [Example 2(e), 2-(6-(2-ethyl-5-fluoro-4-hydroxyphenyl)-1H-indazol-3-yl)-N-methyl-N-phenyl-1,4,6,7-tetrahydro-5H-imidazo[4,5-c]pyridine-5-carboxamide] | 10.9 | 92 | 
CCc1cc(O)c(F)cc1-c1ccc2c(-c3nc4c([nH]3)CN(C(=O)Nc3cccc5nsnc35)CC4)n[nH]c2c1 [Example 4(e), N-(benzo[c][1,2,5]thiadiazol-4-yl)-2-(6-(2-ethyl-5-fluoro-4-hydroxyphenyl)-1H-indazol-3-yl)-6,7-dihydro-1H-imidazo[4,5-c]pyridine-5(4H)-carboxamide] | 30.9 |  | 
CCc1cc(O)c(F)cc1-c1ccc2c(-c3nc4c([nH]3)CCN(S(=O)(=O)N(C)C3CCOCC3)C4)n[nH]c2c1 [Example 6(c), 2-(6-(2-ethyl-5-fluoro-4-hydroxyphenyl)-1H-indazol-3-yl)-N-methyl-N-(tetrahydro-2H-pyran-4-yl)-6,7-dihydro-1H-imidazo[4,5-c]pyridine-5(4H)-sulfonamide] | 9.3 | 76 | 
CCc1cc(O)c(F)cc1-c1ccc2c(-c3nc4c([nH]3)CCN(C(=O)c3cnc(N5CCCCC5)cn3)C4)n[nH]c2c1 [Reference Compound, reference compound] |  | 49 | concentration at 0.5 h [2, 3]: 344 ng/g; concentration at 1 h [2, 3]: 102 ng/g; concentration at 2 h [2, 3]: 2370 ng/g; concentration at 4 h [2, 3]: 2970 ng/g; concentration at 6 h [2, 3]: 201 ng/g; concentration at 8 h [2, 3]: 2560 ng/g; concentration at 12 h [2, 3]: 3230 ng/g; concentration at 24 h [2, 3]: 16.6 ng/g; concentration at 0.5 h [2, 4]: 5.2 ng/mL; concentration at 1 h [2, 4]: 12.8 ng/mL; concentration at 2 h [2, 4]: 2.2 ng/mL; concentration at 4 h [2, 4]: 14.4 ng/mL; concentration at 6 h [2, 4]: 114 ng/mL; concentration at 8 h [2, 4]: 95 ng/mL; concentration at 12 h [2, 4]: 0 ng/mL; concentration at 24 h [2, 4]: 0 ng/mL; Colonic exposure AUC0-24 h ([2]; total colon): 43,739 h·ng/g
CCc1cc(O)c(F)cc1-c1ccc2c(-c3nc4c([nH]3)CCN(C(=O)Nc3c(C)noc3C)C4)n[nH]c2c1 [Example 4(c), N-(3,5-dimethylisoxazol-4-yl)-2-(6-(2-ethyl-5-fluoro-4-hydroxyphenyl)-1H-indazol-3-yl)-6,7-dihydro-1H-imidazo[4,5-c]pyridine-5(4H)-carboxamide] | 44.2 |  | 
CCc1cc(O)c(F)cc1-c1ccc2c(-c3nc4c([nH]3)CCN(C(=O)NCCOCCOC)C4)n[nH]c2c1 [Example 4(a), 2-(6-(2-ethyl-5-fluoro-4-hydroxyphenyl)-1H-indazol-3-yl)-N-(2-(2-methoxyethoxy)ethyl)-6,7-dihydro-1H-imidazo[4,5-c]pyridine-5(4H)-carboxamide] | 14.6 | 60 | 
CCc1cc(O)c(F)cc1-c1ccc2c(-c3nc4c([nH]3)CCN(S(=O)(=O)N3CCC(C(=O)NC)CC3)C4)n[nH]c2c1 [Example 6(b), 1-((2-(6-(2-ethyl-5-fluoro-4-hydroxyphenyl)-1H-indazol-3-yl)-6,7-dihydro-1H-imidazo[4,5-c]pyridin-5(4H)-yl)sulfonyl)-N-methylpiperidine-4-carboxamide] | 100 |  | 
CCc1cc(O)c(F)cc1-c1ccc2c(-c3nc4c([nH]3)CCN(S(=O)(=O)N3CCS(=O)(=O)CC3)C4)n[nH]c2c1 [Example 6(g), 4-((2-(6-(2-ethyl-5-fluoro-4-hydroxyphenyl)-1H-indazol-3-yl)-6,7-dihydro-1H-imidazo[4,5-c]pyridin-5(4H)-yl)sulfonyl)thiomorpholine 1,1-dioxide] | 7.2 | 88 | 
CCc1cc(O)c(F)cc1-c1ccc2c(-c3nc4c([nH]3)CCN(C(=O)Nc3ccc(S(C)(=O)=O)cc3)C4)n[nH]c2c1 [Example 4(b), 2-(6-(2-ethyl-5-fluoro-4-hydroxyphenyl)-1H-indazol-3-yl)-N-(4-(methylsulfonyl)phenyl)-6,7-dihydro-1H-imidazo[4,5-c]pyridine-5(4H)-carboxamide] | 54.8 |  | 
CCc1cc(O)c(F)cc1-c1ccc2c(-c3nc4c([nH]3)CCN(C(=O)N3CCCC3)C4)n[nH]c2c1 [Example 2(d), (2-(6-(2-ethyl-5-fluoro-4-hydroxyphenyl)-1H-indazol-3-yl)-1,4,6,7-tetrahydro-5H-imidazo[4,5-c]pyridin-5-yl)(pyrrolidin-1-yl)methanone] | 5.1 |  | 
CCc1cc(O)c(F)cc1-c1ccc2c(-c3nc4c([nH]3)CCN(C(=O)N3CCc5ccccc53)C4)n[nH]c2c1 [Example 2(b), (2-(6-(2-ethyl-5-fluoro-4-hydroxyphenyl)-1H-indazol-3-yl)-1,4,6,7-tetrahydro-5H-imidazo[4,5-c]pyridin-5-yl)(indolin-1-yl)methanone] | 31.3 |  | 
CCc1cc(O)c(F)cc1-c1ccc2c(-c3nc4c([nH]3)CCN(C(=O)Nc3ccccc3)C4)n[nH]c2c1 [Example 4(f), 2-(6-(2-ethyl-5-fluoro-4-hydroxyphenyl)-1H-indazol-3-yl)-N-phenyl-6,7-dihydro-1H-imidazo[4,5-c]pyridine-5(4H)-carboxamide] | 19.6 |  | 
